The text below walks through data of patent publication US7888527B2 (University of Virginia Patent Foundation, priority 2004, dated 2011).

For experiment [1], the target named is T1, human S1P1 receptor (Homo sapiens, UniProt P21453). Description: Cell migration assay, T24 cells transfected stably with human S1P1 receptor. It is filed as cell-based. On the set-up: expressed in transfected cells. Here is the method:
[…] monolayers are co-transfected with the human S1P1, S1P2, S1P3 receptor encoding DNAs and the pIRESpuro2 plasmid DNA (Clontech, San Jose, Calif.,) using either Lipofectamine 2000 (Invitrogen, Carlsbad, Calif.) or FuGENE 6 (Roche Applied Science, Indianapolis, Ind.). Clonal populations expressing the puromycin acetyltransferase gene are selected by addition of puromycin (Sigma-Aldrich, St. Louis, Mo.) to the culture media. T24 cells are grown in monolayers at 37° C. in a 5% CO2/95% air atmosphere in growth media consisting of: 95% DMEM/F-12 medium and 10% charcoal/dextran stripped FBS.
Cell migration assays are performed using modified Boyden chambers (tissue culture-treated, 24-mm diameter, 10-μm thickness, 8-μm pores, Transwell®; Costar Corp., Cambridge, Mass.) containing polycarbonate membranes that are coated on the underside with 0.1% gelatin. The underside of the polycarbonate membranes is rinsed once with migration media (DMEM/F12 without Phenol Red and 0.1% fatty acid free BSA) and then immersed in the lower chamber containing two milliliters of migration media. T24 cells transfected stably with human S1P1 receptor DNA were grown in DMEM/F12 media containing charcoal/dextran stripped FBS and 10 μg/ml puromycin to 100% confluence in 150×2.5 mm tissue culture plates and serum starved at least 12 hours. Serum-starved cells were removed from culture dishes with 10× Trypsin-EDTA (Hanks' balanced salt solution containing 5 mM EDTA and 25 mM HEPES, pH 7.2, and 0.1% trypsin; Invitrogen, San Diego, Calif.), suspended in migration buffer and collected by centrifugation at 130×g for 5 minutes. The supernatant fluid was removed by aspiration and cell pellet resuspended in migration media (10^6 cells/ml). […] The non-migrating cells in the upper chamber were removed by aspiration and the migratory cells attached to the bottom surface of the membrane were isolated by incubation in 10× Trypsin-EDTA for 1 min at room temperature and gently tapping the plate to dislodge cells from the membrane. The mass of migratory cells per membrane was evaluated by combining 100 μl of cell suspension with an equal volume of CyQuant dye solution (3.0 ml of 2× lysis buffer and 15 μl CyQuant dye), and the resulting fluorescence quantified using the FlexStation™ fluorimeter (Molecular Devices, Menlo Park, Calif.). Each determination represents the average of two individual migration chambers. […] The monolayer was washed three times with phosphate buffered saline and processed immediately for the cell migration assay, as described above.

The target in experiment [2] is T2, human S1P3 receptor (Homo sapiens, UniProt Q99500). Kind of experiment: [γ-35S]GTP binding assay, HEK293T membranes (agonism and Schild antagonism). Type of experiment: biochemical. Set-up: expressed in transfected cells; host or cells: HEK293T, transient transfection; membranes. From the text:
(§1) The appropriate receptor plasmid DNA (encoding human S1P1, human S1P2, human S1P3, human S1P4, human S1P5, human LPA1, human LPA2 or human LPA3 receptors) is mixed with equal amounts of expression plasmids encoding human Gi2α (for S1P3, a mutated (C352F) rat Gi2α is used), cow β1, and cow γ2 proteins, and these DNAs are used to transfect monolayers of HEK293T cells (where ‘T’ indicates expression of the SV-40 virus large T antigen) using the calcium phosphate precipitate method (7). After about 60 hours, cells are harvested, membranes prepared, aliquoted, and stored at −70° C. until use (8).
(§2) The [γ-^35S]GTP binding assay is performed as described previously (8). Membranes containing 1-5 μg of protein are incubated in 0.1 ml of binding buffer (in mM: HEPES/50, NaCl/100, MgCl2/10, pH 7.5) containing 5 μg of saponin, 10 μM GDP, 0.1 nM [γ-^35S]GTP (1200 Ci/mmol), and indicated lipid(s) for 30 min at 30° C. and collected using a Brandel Cell Harvester (Gaithersburg, Md.). Samples are then analyzed for bound radionuclide.
Briefly, nonlinear analysis of the best-fit line generated by plotting the negative log of the EC50 values obtained from agonist dose-response curves, in the absence and presence of varying concentrations of antagonist, was plotted against the concentration of antagonist to give the Kb value.
(§3) Statistical Analysis. The EC50 and IC50 values for all dose response curves were determined by nonlinear regression analysis of all data using the Graphpad Prism© program. The error associated with the data collected is reported as the standard error of the mean (S.E.M).

Experiment [3] deals with T1, human S1P1 receptor. Description: [32P]S1P binding assay, HEK293T membranes. On the set-up: expressed in transfected cells; host or cells: HEK293T, transient transfection; membranes. Conditions: read-out: pKi S1P1 (converted). As for the experimental part:
(§4) [^32P]-S1P was prepared by incubating sphingosine and [γ-^32P]ATP with cell lysate from HEK293T cells transiently transfected with human sphingosine kinase type 2 DNA. The 200 μl reaction contained 0.025 mM sphingosine, 1 mCi [γ-^32P]ATP (7000 Ci/mmol) and kinase buffer (in mM: Mg(C2H3O2)2 (in 50 mM Tris, pH 7.5)/10, NaF/10, and semicarbizide/2). The reaction was initiated by the addition of 20 μg of cell lysate and incubated at 37° C. for at least 30 minutes. […] The organic layer was isolated and the extraction procedure repeated two additional times with the remaining aqueous fraction. The combined organic fractions were dried under a stream of nitrogen gas and resuspended in aqueous 0.1% fatty acid free BSA.
(§5) Bound ligand was separated from free ligand by rapid filtration and analyzed in a liquid scintillation counter.
as §3

Experiment [4] deals with T2, human S1P3 receptor. Description: [32P]S1P binding assay, HEK293T membranes. Set-up: expressed in transfected cells; host or cells: HEK293T, transient transfection; membranes. The note with it: read-out: pKi S1P3 (converted). As for the experimental part: as §4, §5, §3
A further experiment addresses T3, S1P2 receptor (Homo sapiens, UniProt O95136).
T3 construct: expressed in transfected cells; host or cells: HEK293T, transient transfection; membranes
Description: [γ-35S]GTP binding assay, HEK293T membranes. Type of experiment: biochemical.
From the text: as §1, §2, §3

“Also recorded” adds a separate entry of the source. A value given as a limit tells only on which side of the number the result lay.

T3 sequence (O95136 whole entry): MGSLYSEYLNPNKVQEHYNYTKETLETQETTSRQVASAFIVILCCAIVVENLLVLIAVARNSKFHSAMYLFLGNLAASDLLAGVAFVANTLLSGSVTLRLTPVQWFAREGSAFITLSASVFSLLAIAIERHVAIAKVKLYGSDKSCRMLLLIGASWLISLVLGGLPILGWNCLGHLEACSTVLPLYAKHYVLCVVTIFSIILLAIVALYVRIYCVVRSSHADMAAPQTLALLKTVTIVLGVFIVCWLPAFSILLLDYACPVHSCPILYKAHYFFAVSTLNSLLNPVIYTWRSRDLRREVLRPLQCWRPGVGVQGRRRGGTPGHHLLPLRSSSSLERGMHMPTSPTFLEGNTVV
T1 sequence (P21453 whole entry): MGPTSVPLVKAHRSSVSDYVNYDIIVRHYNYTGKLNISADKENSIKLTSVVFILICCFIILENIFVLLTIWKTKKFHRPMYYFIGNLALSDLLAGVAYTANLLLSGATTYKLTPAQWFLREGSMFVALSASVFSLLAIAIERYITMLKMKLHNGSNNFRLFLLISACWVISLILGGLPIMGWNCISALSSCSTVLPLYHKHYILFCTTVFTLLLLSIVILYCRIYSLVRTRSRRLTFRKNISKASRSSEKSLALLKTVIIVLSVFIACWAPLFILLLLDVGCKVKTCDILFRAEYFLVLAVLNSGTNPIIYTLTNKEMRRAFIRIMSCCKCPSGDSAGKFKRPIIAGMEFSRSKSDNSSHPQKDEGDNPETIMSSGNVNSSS
T2 sequence (Q99500 whole entry): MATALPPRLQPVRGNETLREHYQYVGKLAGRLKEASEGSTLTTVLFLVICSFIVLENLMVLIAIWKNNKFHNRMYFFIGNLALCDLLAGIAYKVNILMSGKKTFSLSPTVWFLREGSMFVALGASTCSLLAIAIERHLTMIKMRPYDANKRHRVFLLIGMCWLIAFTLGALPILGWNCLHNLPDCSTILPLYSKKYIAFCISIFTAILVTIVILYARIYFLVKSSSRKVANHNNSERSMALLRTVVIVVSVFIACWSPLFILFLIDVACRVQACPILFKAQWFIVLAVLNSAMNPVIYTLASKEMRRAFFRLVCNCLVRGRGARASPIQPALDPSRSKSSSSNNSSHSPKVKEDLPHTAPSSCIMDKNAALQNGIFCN

For `CCCCCCCCc1cccc(NC(=O)[C@H](N)COP(=O)(O)O)c1` [VPC23019], the “Blockade of VPC22277 (10 nM)-induced migration” value on human S1P1 receptor [1] (50 nM antagonist) is recorded as “Blockade”; at human S1P1 receptor [1] (10, 100 and 1000 nM antagonist), “blockade”. Further, the “Reversibility of antagonism after washout, cell migration” value at human S1P1 receptor [1] (10 μM VPC23019 pre-incubation 30 min, washed) was “recovered fully”. The “Migration of T24-S1P1 cells evoked by compound alone” value at human S1P1 receptor [1] (VPC22277 10 nM, VPC23019 1 nM-1000 nM) is “no migration was evoked and not”. The “Agonist activity at the S1P3 receptor” value at human S1P3 receptor [2] is on record as “lacked agonist activity”. At human S1P3 receptor [2] (VPC23019 concentrations greater than 100 nM), the “Inverse agonism profile at S1P3” value was “a profile suggesting inverse agonism”. Besides, at human S1P3 receptor [2] ([γ-35S]GTP binding, S1P with increasing VPC23019, Lew and Angus regression), the “Antagonism of S1P at the S1P3 receptor” value was “dose-dependent, parallel rightward shift; also recorded: competitive antagonist”. On human S1P3 receptor [2] (read-out: pKb S1P3 (converted)), the Kb was 1.05 µM. On human S1P3 receptor [2] (relative to S1P Emax), the “Agonist efficacy class S1P3” value is listed as “na (no agonist activity (<10% of S1P Emax))”. For the same compound, the figures for the Ki at human S1P1 receptor [3] and at human S1P3 receptor [4] were 0.0138 µM and 1.17 µM, respectively. Also, the “Activity at the S1P2 receptor” value at S1P2 receptor is recorded as “devoid of agonist activity”. The EC50 at S1P2 receptor (-log molar concentration giving 50% of maximal [γ-35S]GTP binding, ± S.E.M., read-out: pEC50 S1P2 (converted)) is over 10 µM. The “Agonist or antagonist activity at the human S1P2 receptor” value on S1P2 receptor (concentrations up to 10 micromolar) is “inactive as either an agonist or antagonist”.
